Patent US20100204210A1, “METHOD FOR TREATING PULMONARY DISEASES USING RHO KINASE INHIBITOR COMPOUNDS” (priority 2008, published 2010)
Read-outs that look alike come from different tables or passages of the source.

Experiments:
[1] = test system: rat tracheal rings; experiment: Relaxation of carbachol-precontracted rat tracheal rings with reduced responsiveness to beta adrenergic receptor agonist; conditions: for response of carbachol-precontracted trachea to beta adrenergic receptor agonist: 300 nM carbachol, 1 μM isoproterenol, 1 μM formoterol or 30 μM albuterol, FIG. 1A-C; for relaxation by second addition of beta agonist after the response to 3 μM formoterol has faded: second dose 3 μM formoterol or 100 μM albuterol
Procedure: Trachea were excised from male Sprague-Dawley rats, cleaned of connective tissue and cut into cylindrical segments of 2-3 mm length. Two stainless steel wires were guided through the lumen of the tracheal ring. One wire was fixed in the tissue bath and the other was connected to a force transducer via surgical silk. Preparations were mounted in 5 ml water-jacketed organ baths (Radnoti Glass Technology) filled with Krebs buffer (95 mM NaCl, 5 mM KCl, 2.6 mM CaCl2, 1.2 mM MgSO4, 24.9 mM NaHCO3, 1.2 mM KH2PO4, 10 mM glucose) maintained at 37° C. and gassed with 95% O2 and 5% CO2. Indomethacin (1 μM), a cyclooxygenase inhibitor, was added to the Krebs buffer and was present throughout the experiments. Contractile tensions were measured using an isometric force transducer (Grass Instruments) and signals were analyzed using specialized software (Chart v5.5, ADInstruments). The preparations were allowed to equilibrate at a resting tension of 0.3 to 0.5 gm prior to two challenges with 60 mM KCl to assess tissue viability. After washing, tissues were treated with 300 nM carbachol for 10 to 15 minutes to induce a contractile response. Tissues were then treated with isoproterenol, formoterol, or albuterol to induce a relaxant response. […] After 10 minutes of formoterol treatment, these tissues were treated with a second dose of formoterol or with albuterol. After an additional 10 minutes, tissues were treated with a Rho kinase inhibitor. Basal tension was subtracted from all values and data were reported as a percentage of the maximal carbachol-induced contraction. Four parameters were analyzed for quantitation of efficacies: i) the maximal relaxation induced by initial formoterol treatment, ii) the fade of the response to the initial formoterol treatment, iii) the maximal relaxation induced by the second addition of a beta adrenergic receptor agonist, and iv) the maximal relaxation induced by Rho kinase inhibitor.

[2] = test system: rat tracheal rings; experiment: Relaxation of carbachol-precontracted rat tracheal rings pretreated with vehicle or pro-inflammatory cytokines IL-1β and TNF-α; conditions: 300 nM carbachol, read-out: IC50 for relaxant response
Procedure: Male Sprague-Dawley rats weighing 301-325 gm were sacrificed by asphyxiation in a CO2 chamber. Trachea were excised, cleaned of connective tissue and cut into cylindrical segments of 2-3 mm length. Tissues were treated for 18 hours at 37° C. in F12 media with penicillin-streptomycin and 0.1% BSA alone or with 10 ng/ml IL-1β and 100 ng/ml TNF-α. IL-1β and TNF-α are pro-inflammatory cytokines. Tissues were then washed free of cytokines with Krebs buffer. Contractile tensions were measured using an isometric force transducer (Grass Instruments) as described for Example 1 and signals were analyzed using specialized software (Chart v5.5, ADInstruments). Tissues were treated with 300 nM carbachol for 10 to 15 minutes to induce a contractile response. Beta adrenergic receptor agonist compounds, isoproterenol or albuterol, were added cumulatively to the bath every 2 to 3 minutes and reductions in tension were recorded. Alternatively, Rho kinase inhibitor compound was added cumulatively to the bath every 30 minutes and reductions in tension were recorded. Basal tension was subtracted from all values and data were reported as a percentage of the maximal carbachol-induced contraction. Data were fit to the Hill equation using GraphPad Prism v5 software.

[3] = Pulmonary function test (FEV1 after methacholine provocation) in human patients treated with formoterol; format: in vivo; conditions: formoterol group compared to the placebo group, after 2 weeks
Excerpt: Patients with asthma or COPD are randomized to albuterol or Rho kinase inhibitor compound test groups. After 2-weeks of run-in period, subjects are given a methacholine provocation test (MPT) to induce bronchoconstriction followed by treatment with increasing doses of albuterol or with increasing doses of Rho kinase inhibitor compound to induce bronchorelaxation to establish the subject's baseline response to albuterol or Rho kinase inhibitor compound. Subjects from both test groups are then randomized to inhaled formoterol twice daily or placebo for 2 weeks. At the end of the trial period, the albuterol test group subjects are again administered a methacholine provocation test to induce bronchoconstriction followed by treatment with increasing doses of albuterol. Similarly, the Rho kinase inhibitor compound test group subjects are again administered a methacholine provocation test to induce bronchoconstriction followed by treatment with increasing doses of Rho kinase inhibitor compound to induce bronchorelaxation. The change in FEV1 after albuterol inhalation or administration of Rho kinase inhibitor compound is measured.

[4] = cytokine-pretreated tissue (10 ng/ml IL-1β and 100 ng/ml TNF-α, 18 hours)

Compound | response of carbachol-precontracted trachea to beta adrenergic receptor agonist [1] | relaxation by second addition of beta agonist after the response to 3 μM formoterol has faded [1] | IC50 [2, 4] [nM] | IC50 ([2]; vehicle-pretreated tissue) [nM] | bronchodilator response as measured by FEV1 [3] | maximal relaxation induced by initial formoterol treatment ([1]; 3 μM formoterol, FIGS. 4-7)
CC(C)(C)NCC(O)c1ccc(O)c(CO)c1 (centres unmarked) [albuterol] | initial rapid and partial relaxation of the tissue followed by a slower fade of the response to a more contractile state | ineffective in relaxing the tracheal preparation | 411 | 239 | decrease in the bronchodilator response | –
COc1ccc(CC(C)NCC(O)c2ccc(O)c(NC=O)c2)cc1 (centres unmarked) [formoterol] | initial rapid and partial relaxation of the tissue followed by a slower fade of the response to a more contractile state | ineffective in relaxing the tracheal preparation | – | – | – | approximately 30 % of the initial carbachol response
CC(C)NCC(O)c1ccc(O)c(O)c1 (centres unmarked) [isoproterenol] | initial rapid and partial relaxation of the tissue followed by a slower fade of the response to a more contractile state | – | 71 | 33 | – | –
